The values that follow are results of earlier work, collected in PubChem BioAssay AID1259409 (Chemical Carcinogenesis Research Information System (CCRIS), 2018).

This data set deals with rodent chemically induced tumor inhibition, incidence and multiplicity. Description: CCRIS tumor inhibitor studies.

`CC(C)C[C@H]1C(=O)N2CCC[C@H]2[C@]2(O)O[C@](NC(=O)[C@@H]3C=C4c5cccc6[nH]c(Br)c(c56)C[C@H]4N(C)C3)(C(C)C)C(=O)N12`: the “tumour outcome (control, treated, inhibition, significance)” value runs as follows: (Carcinogen: N-METHYL-N-NITROSOUREA, 684-93-5, Dose [Inhibitor]: 0.4 MG/100 G BW 1/D FOR 129 D BEGINNING AT 60 D OF AGE (STUDY DURATION: 223 D), Route [Inhibitor]: SUBCUTANEOUS, Species: RAT, Strain/Sex: SPRAGUE-DAWLEY/FEMALE, Target Tissue: Type of Lesion: MAMMARY GLAND: NOT SPECIFIED, Dose [Carcinogen]: 2.5 MG/100 G BW ONCE AT 50 D AND ONCE AT 57 D OF AGE, Promoter: NONE USED) 73%, 37%, 49%, p<0.005; (Carcinogen: N-METHYL-N-NITROSOUREA, 684-93-5, Dose [Inhibitor]: 0.4 MG/100 G BW 1/D FOR 175 D BEGINNING AT 60 D OF AGE (STUDY DURATION: 185 D), Route [Inhibitor]: SUBCUTANEOUS, Species: RAT, Strain/Sex: SPRAGUE-DAWLEY/FEMALE, Target Tissue: Type of Lesion: MAMMARY GLAND: NOT SPECIFIED, Dose [Carcinogen]: 1.25 MG/100 G BW ONCE AT 50 D AND ONCE AT 57 D OF AGE, Promoter: NONE USED) 27%, 13%, 52%, not significant; (Carcinogen: N-METHYL-N-NITROSOUREA, 684-93-5, Dose [Inhibitor]: 0.4 MG/100 G BW 1/D PLUS 328 MG RETINYL ACETATE/KG DIET FOR 175 D BEGINNING AT 60 D OF AGE (STUDY DURATION: 185 D), Route [Inhibitor]: SUBCUTANEOUS, Species: RAT, Strain/Sex: SPRAGUE-DAWLEY/FEMALE, Target Tissue: Type of Lesion: MAMMARY GLAND: NOT SPECIFIED, Dose [Carcinogen]: 1.25 MG/100 G BW ONCE AT 50 D AND ONCE AT 57 D OF AGE, Promoter: NONE USED) 27%, 0%, 100%, p<0.01; (Carcinogen: N-METHYL-N-NITROSOUREA, 684-93-5, Dose [Inhibitor]: 0.4 MG/100 G BW 1/D PLUS 328 MG RETINYL ACETATE/KG OF DIET, FOR 129 D BEGINNING AT 60 D OF AGE (STUDY DURATION: 223 D), Route [Inhibitor]: SUBCUTANEOUS, Species: RAT, Strain/Sex: SPRAGUE-DAWLEY/FEMALE, Target Tissue: Type of Lesion: MAMMARY GLAND: NOT SPECIFIED, Dose [Carcinogen]: 2.5 MG/100 G BW ONCE AT 50 D AND ONCE AT 57 D OF AGE, Promoter: NONE USED) 73%, 7%, 90%, p<0.005; (Carcinogen: NONE USED, Dose [Inhibitor]: 0.1 MG IN SALINE 1/D FOR 12 MO BEGINNING AT 2 MO OF AGE (STUDY DURATION: 22 MO), Route [Inhibitor]: SUBCUTANEOUS, Species: MOUSE, Strain/Sex: C3H/FEMALE, Target Tissue: Type of Lesion: MAMMARY GLAND: CARCINOMA, Promoter: NONE USED) 24/90 (27%), 1/90 (1%), 96%, p<0.001; (Carcinogen: NONE USED, Dose [Inhibitor]: 0.1 MG IN SALINE 1/D FOR 30 D ON ALTERNATE MO BEGINNING AT 7 MO OF AGE FOR 12 MO (STUDY DURATION: 12 MO), Route [Inhibitor]: SUBCUTANEOUS, Species: MOUSE, Strain/Sex: C3H/FEMALE, Target Tissue: Type of Lesion: MAMMARY GLAND: CARCINOMA, Promoter: NONE USED) 36/70 (51%), 9/70 (13%), 74%, p<0.01. The “tumour outcome (control, treated, inhibition, significance)” value reads like this: (Carcinogen: NONE USED, Dose [Inhibitor]: 0.1 MG/D BEGINNING AT 1 MO OF AGE FOR 16 MO (STUDY DURATION: 16 MO), Route [Inhibitor]: SUBCUTANEOUS, Species: MOUSE, Strain/Sex: C3H/FEMALE, Target Tissue: Type of Lesion: MAMMARY GLAND: TUMOR, Promoter: NONE USED) 24/29 (83%), 13/28 (46%), 44%, p<0.01; (Carcinogen: NONE USED, Dose [Inhibitor]: 0.5 MG IN 0.05 ML OLIVE OIL 1/D FOR 7 WK BEGINNING AT 4 WK OF AGE (STUDY DURATION: 26 MO), Route [Inhibitor]: SUBCUTANEOUS, Species: RAT, Strain/Sex: SPRAGUE-DAWLEY/FEMALE, Target Tissue: Type of Lesion: MAMMARY GLAND: TUMOR, Promoter: NONE USED) 70%, 32%, 54%, p<0.05; (Carcinogen: NONE USED, Dose [Inhibitor]: 0.5 MG IN 0.05 ML OLIVE OIL 1/D FOR 7 WK BEGINNING AT 11 WK OF AGE (STUDY DURATION: 26 MO), Route [Inhibitor]: SUBCUTANEOUS, Species: RAT, Strain/Sex: SPRAGUE-DAWLEY/FEMALE, Target Tissue: Type of Lesion: MAMMARY GLAND: TUMORS, Promoter: NONE USED) 70%, 55%, 21%, p<0.05; (Carcinogen: NONE USED, Dose [Inhibitor]: 8.5 MG/KG 1/D FOR 4 D TO PREGNANT MICE ON D 12 TO D 15 OF PREGNANCY, FEMALE OFFSPRING OBSERVED FOR 10 MO (STUDY DURATION, Route [Inhibitor]: SUBCUTANEOUS, Species: MOUSE, Strain/Sex: SHN/FEMALE, Target Tissue: Type of Lesion: MAMMARY GLAND: NOT SPECIFIED, Promoter: NONE USED) 33/38 (87%), 10/13 (77%), 11%, not calculated; (Carcinogen: NONE USED, Dose [Inhibitor]: 40 MG/KG 1/D FOR FIRST 5 D OF POSTNATAL LIFE, OBSERVED FOR 10 MO (STUDY DURATION: 10 MO), Route [Inhibitor]: SUBCUTANEOUS, Species: MOUSE, Strain/Sex: SHN/FEMALE, Target Tissue: Type of Lesion: MAMMARY GLAND: NOT SPECIFIED, Promoter: NONE USED) 33/38 (87%), 17/17 (100%), -15%, not significant; (Carcinogen: NONE USED, Dose [Inhibitor]: 100 UG OF 1 MG/ML DISSOLVED IN A MINIMAL AMOUNT OF ETHANOL AND SUSPENDED IN 0.9% NACL 1/D FROM D 7 TO 21 OF PREGNANCY (S, Route [Inhibitor]: SUBCUTANEOUS, Species: MOUSE, Strain/Sex: GR/FEMALE, Target Tissue: Type of Lesion: MAMMARY GLAND: TUMOR, Promoter: NONE USED) 39/44 (89%), 24/43 (56%), 37%, p<0.05. The outcome (Carcinogen: N-METHYL-N-NITROSOUREA, 684-93-5, Dose [Inhibitor]: 400 UG/100 G BW TOGETHER WITH 25 UG/100 G BW TAMOXIFEN 1/D FOR 6 MO BEGINNING 3 D POST CARCINOGEN DOSE, DOSAGE OF BOTH R, Route [Inhibitor]: SUBCUTANEOUS, Species: RAT, Strain/Sex: SPRAGUE-DAWLEY/FEMALE, Target Tissue: Type of Lesion: MAMMARY GLAND: CARCINOMA, Dose [Carcinogen]: 2.5 MG/100 G BW ONCE AT 50 D AND ONCE AT 57 D OF AGE, Promoter: NONE USED) was 88%, 3%, 97%, p<0.001 (at 4 mo post carcinogen dose); 88%, 28%, 68%, not calcula; the outcome (Carcinogen: N-METHYL-N-NITROSOUREA, 684-93-5, Dose [Inhibitor]: 400 UG/100 G BW TOGETHER WITH 25 UG/100 G BW TAMOXIFEN 1/D FOR 6 MO PLUS 328 MG RETINYL ACETATE/KG DIET FOR 6 MO, DOSAGE, Route [Inhibitor]: SUBCUTANEOUS, Species: RAT, Strain/Sex: SPRAGUE-DAWLEY/FEMALE, Target Tissue: Type of Lesion: MAMMARY GLAND: CARCINOMA, Dose [Carcinogen]: 2.5 MG/100 G BW ONCE AT 50 D AND ONCE AT 57 D OF AGE, Promoter: NONE USED) is listed as 88%, 0%, 100%, p<0.001 (at 4 mo post carcinogen dose); 88%, 7%, 92%, not calcula; the outcome (Carcinogen: N-ethyl-N'-nitro-N-nitrosoguanidine (ENNG), 4245-77-6, Dose [Inhibitor]: 1 mg/kg bw 5 x a wk up to 14.5 mo of age (half a mo before termination of experiment), Route [Inhibitor]: Subcutaneous, Species: Rat, Strain/Sex: Crj:Donryu/female, Target Tissue: Type of Lesion: Uterus: Adenocarcinoma, Dose [Carcinogen]: 20 mg/kg, Promoter: None) is recorded as 9/25 (36%), 3/23 (13%), p<0.05.
